Results: patent US20100137344A1, “INDUCTION OF ANALGESIA IN NEUROPATHIC PAIN” (University Court of the University of Edinburgh, priority 2006, published 2010)

System: rats with chronic constriction injury (CCI) to sciatic nerve
Experiment: Topical application to paws of CCI rats, behavioural reflex testing (thermal PWL, mechanical PWT)
Assay type: in vivo, rat
Details: for % reversal of ipsilateral sensitisation, PWL / % reversal of ipsilateral sensitisation, PWT: 10-25 minutes after icilin
Protocol: Pain models were generated under halothane anaesthesia (Zeneca, Cheshire, UK). For the chronic constriction injury (CCI) model of neuropathic pain, four ligatures were tied loosely to constrict the sciatic nerve at mid-thigh level (as described previously^[39]). An inflammatory pain model was generated by injecting 100 μl of Complete Freund's Adjuvant (CFA, Sigma-Aldrich Ltd) into the ventral surface of the right hindpaw^[39]. A model of peripheral demyelination-induced pain was produced by focal application of lysolecithin to the sciatic nerve^[40]. Peak behavioural sensitisation was observed post-surgically between days 10-16 for CCI, 1-3 for CFA, and 7-14 for lysolecithin, when pharmacological and electrophysiological experiments and tissue removal were conducted.
Thermal sensitivity was assessed by measuring paw withdrawal latency (PWL, s) in response to a noxious thermal stimulus (Hargreaves' thermal stimulator, Linton Instrumentation, Diss, UK) directed to the hindpaw mid-plantar glabrous surface. Mechanical sensitivity was recorded as the paw withdrawal threshold (PWT, mN/mm^2) to calibrated von Frey filaments (Stoelting, Ill., US), as previously described^[39]. Sensitivity to noxious cold was assessed by placing animals in a waterbath with an aluminium floor containing 1 cm deep 4° C. water and counting the time the paw was held suspended over a 20 s period.
Icilin was applied at concentrations of 2.5-500 μM (in water with 0.2% DMF), by placing CCI or naïve rats unrestrained for 5 min in a 1 cm deep waterbath (sufficient to cover paws), which was thermostatically controlled to a temperature of 30° C., or by very lightly anaesthetising rats and immersing hindpaws in small tubes containing 5 ml icilin (500 μM-5 mM, with a vehicle of 45% dimethylformamide in 0.2% aqueous Tween 80) for 5 min, followed by sensory testing for 60-80 mins. The effects of (−)-menthol and its stereoisomers isomenthol (1S,2R,5R-menthol,) and (+)-menthol (1S,2R,5S(+)-menthol) (4-16 mM in 80% ethanol) were also assessed. Relevant vehicles were always assessed in similar experiments. As a contrast, the effect of cinnamaldehyde (1.5 mM in water) and the effect of cinnamaldehyde with additional icilin (80 μM in water with 0.2% DMF) were assessed in naïve animals. The effects of icilin (80 μM) were further assessed in CCI animals that had undergone antisense and mis-sense treatment for knockdown of TRPM8 or immediately following intrathecal injection of either LY 341495 or UBP 1112. […] The effects of brief paw immersion at different temperatures (10-22° C. for 5 min) on CCI rats were assessed by mechanical testing. The effects of intrathecal LY 341495 or UBP 1112 on the reversal of ipsilateral sensitisation in CCI following a 16° C. cool challenge for 5 min were measured. Reflex testing commenced 5 minutes following challenge, unless animals had been anaesthetised, in which case 15 minutes was allowed for recovery. Six replicate animals were tested in all pharmacological experiments.
Antisense and mis-sense oligonucleotides were 22-mers with phosphorothioate bonds at the last two positions at 5′ and 3′ ends (MWG Biotech, Ebersberg, Germany). Antisense extended from base −10 to base +12 relative to the start of the open reading frame for the rat TRPM8 gene: 5′ C*T*CGAAGGACATCTTGCCGT*G*G 3′, where * represents phosphorothioate linkages. Mis-sense was designed with 4 inversions of C/G or A/T as appropriate at residues 3, 11, 14 and 22, preserving overall G/C content. BLAST searches of both oligonucleotides indicated no significant complementarity to any known gene sequence. 14-day or 7-day osmotic minipumps (for CCI experiments or naïve electrophysiology experiments respectively—Alzet Minipump, models 2002, 2001; Charles River, UK) containing oligonucleotides (1 μg/μl in sterile saline) were connected to canulae inserted under the dura of the spinal cord to level L5/6 and produced a predicted infusion rate of 0.5 μl/h. […]

[1] = icilin 80 μM topical, antisense-treated CCI animals
[2] = icilin 80 μM topical, mis-sense-treated CCI animals
[3] = icilin 1000 μM applied to paw, CCI Con, 15 mins
[4] = icilin 1000 μM applied to paw, CCI Con, 50 mins
[5] = icilin 1000 μM applied to paw, CCI Ipsi, 15 mins
[6] = icilin 1000 μM applied to paw, CCI Ipsi, 50 mins
[7] = icilin 2500 μM applied to paw, CCI Con, 15 mins
[8] = icilin 2500 μM applied to paw, CCI Con, 50 mins
[9] = icilin 2500 μM applied to paw, CCI Ipsi, 15 mins
[10] = icilin 2500 μM applied to paw, CCI Ipsi, 50 mins
[11] = icilin 5000 μM applied to paw, CCI Con, 15 mins
[12] = icilin 5000 μM applied to paw, CCI Con, 50 mins
[13] = icilin 5000 μM applied to paw, CCI Ipsi, 15 mins
[14] = icilin 5000 μM applied to paw, CCI Ipsi, 50 mins
[15] = icilin topical, antisense osmotic pumps depleted, 18 days following surgery

CC(C)[C@@H]1CC[C@@H](C)C[C@H]1O [(−)-menthol, 1R,2S,5R-(−)-menthol]
reversal of sensitised responses (topical, (−)-menthol 4 mM, isomenthol and (+)-menthol 8 mM and 16 mM): Specific reversal of sensitised responses

O=C1NC(c2cccc([N+](=O)[O-])c2)=CCN1c1ccccc1O [icilin, 1-(2′-hydroxyphenyl)-4-(3″-nitrophenyl)-1,2,3,6-tetrahydropyrimidin-2-one]
reversal of CCI-induced behavioural reflex sensitisation to thermal and mechanical stimuli (icilin 80 μM topical, 5 min, bath at 30° C.): striking reversal | % reversal of ipsilateral sensitisation, PWL [1]: 7.7±7.4% | % reversal of ipsilateral sensitisation, PWT [1]: 9.4±8.2% | % reversal of ipsilateral sensitisation, PWL [2]: 82.8±6.9% | % reversal of ipsilateral sensitisation, PWT [2]: 58.7±8.2% | analgesia on daily repeated application (Hargreaves' test) (icilin 200 μM topical over four successive days): consistently causes analgesia | Mechanical PWT [3]: 4530.1 ± 300.5 mN/mm^2 | Thermal PWL [3]: 16.1 ± 0.5 s | Mechanical PWT [4]: 4530.1 ± 300.5 mN/mm^2 | Thermal PWL [4]: 15.2 ± 0.4 s | Mechanical PWT [5]: 702.8 ± 185.3 mN/mm^2 | Thermal PWL [5]: 16.4 ± 0.8 s | Mechanical PWT [6]: 702.8 ± 185.3 mN/mm^2 | Thermal PWL [6]: 8.6 ± 0.2 s | Mechanical PWT [7]: 4454.9 ± 245.9 mN/mm^2 | Thermal PWL [7]: 16.8 ± 0.9 s | Mechanical PWT [8]: 4454.9 ± 245.9 mN/mm^2 | Thermal PWL [8]: 15.3 ± 0.7 s | Mechanical PWT [9]: 651.9 ± 193.0 mN/mm^2 | Thermal PWL [9]: 16.4 ± 0.9 s | Mechanical PWT [10]: 651.9 ± 193.0 mN/mm^2 | Thermal PWL [10]: 8.4 ± 0.6 s | Mechanical PWT [11]: 2040.2 ± 115.2 mN/mm^2 | Thermal PWL [11]: 16.1 ± 0.9 s | Mechanical PWT [12]: 4830.6 ± 0.0 mN/mm^2 | Thermal PWL [12]: 13.4 ± 0.7 s | Mechanical PWT [13]: 412.2 ± 24.3 mN/mm^2 | Thermal PWL [13]: 16.7 ± 1.0 s | Mechanical PWT [14]: 736.0 ± 26.3 mN/mm^2 | Thermal PWL [14]: 7.2 ± 0.6 s | % reversal of sensitisation, PWL [15]: 83.7±10.1% | % reversal of sensitisation, PWT [15]: 54.0±7.2%
